Results from US20260258044A1, “PIPERIDINYL-METHYL-PURINE AMINE FUMARIC ACID SALTS, CRYSTALLINE FORMS, AND THEIR USE IN TREATING MEDICAL DISEASES AND CONDITIONS” (K36 Therapeutics, Inc., priority 2022, published 2026).
Entries after “also recorded” stand apart in the source; their conditions may differ.

Tests used:
Assay type in all cases: physicochemical
[1] = hygroscopicity by dynamic vapor sorption; conditions: transitioned from 2% to 95% relative humidity
Procedure: Dynamic vapor sorption was performed using a Q5000SA. The sample (5-15 mg) was loaded into a metallic quartz sample pan, suspended from a microbalance, and exposed to a humidified stream of nitrogen gas. Weight changes were relative to a matching empty reference pan opposite the sample, suspended from the microbalance. The sample was held for a minimum of 10 min at each humidity level and only progressed to the next humidity level if there was <0.002% change in weight between measurements (interval: 5 s) or 60 min had elapsed. The following program was used: • 1. Equilibration at 50% RH • 2. 50% to 2% RH (50%, 40%, 30%, 20%, 10%, and 2% RH) • 3. 2% to 95% RH (2%, 10%, 20%, 30%, 40%, 50%, 60%, 70%, 80%, 90%, and 95% RH) • 4. 95% to 2% RH (95%, 80%, 70%, 60%, 50%, 40%, 30%, 20%, 10%, and 2% RH) • 5. 2% to 50% RH (2%, 10%, 20%, 30%, 40%, and 50% RH).

[2] = water solubility of the crystalline solid; conditions: 37° C.
[3] = accelerated stability study (HPLC and XRPD of recovered salts); conditions: for HPLC Purity (Area %) After Study / XRPD After Study: after one week at 75% relative humidity, 40° C.; for HPLC Purity (Area %) Before Study: before storage
Procedure: An accelerated stability study was conducted on crystalline Form 1 (prepared according to Procedure 2 of Example 1), Form 2, Form 3 (prepared according to Procedure 1 of Example 3), and Form 4 of (S)-1-((R)-3-amino-1-(4-((6-amino-9H-purin-9-yl)methyl)-6-(2,5-difluoro-4-methoxyphenyl) pyridin-3-yl)piperidin-3-yl)-2,2-difluoroethan-1-ol fumaric acid salt. Approximately 12 mg of each solid was placed into separate 4-mL vials, and then the vials were covered with a Kimwipe. The vials were stored for one week inside a stability chamber producing a relative humidity of 75% at 40° C.

Structure (SMILES) | increase in weight [1] [%] | water solubility ([2]; after 30 minutes) [µg/mL] | water solubility ([2]; after 24 hours) [µg/mL] | HPLC Purity (Area %) After Study [3] [Area %] | XRPD After Study [3] | HPLC Purity (Area %) Before Study [3] [Area %] | increase in weight as molar equivalents of water [1]
COc1cc(F)c(-c2cc(Cn3cnc4c(N)ncnc43)c(N3CCC[C@](N)([C@H](O)C(F)F)C3)cn2)cc1F.O=C(O)/C=C/C(=O)O [Form 1, (S)-1-((R)-3-amino-1-(4-((6-amino-9H-purin-9-yl)methyl)-6-(2,5-difluoro-4-methoxyphenyl)pyridin-3-yl)piperidin-3-yl)-2,2-difluoroethan-1-ol Fumaric Acid Salt] | 1.5 | 300 | 1400 | 99.52 | No change; also recorded: Unchanged | 99.50 | 
COc1cc(F)c(-c2cc(Cn3cnc4c(N)ncnc43)c(N3CCC[C@](N)([C@H](O)C(F)F)C3)cn2)cc1F.O=C(O)/C=C/C(=O)O [Form 4, (S)-1-((R)-3-amino-1-(4-((6-amino-9H-purin-9-yl)methyl)-6-(2,5-difluoro-4-methoxyphenyl)pyridin-3-yl)piperidin-3-yl)-2,2-difluoroethan-1-ol Fumaric Acid Salt] | 5.5 | 700 | 600 | 99.59 | Conversion to Form 3 | 99.56 | approximately 2.0 molar equivalents
COc1cc(F)c(-c2cc(Cn3cnc4c(N)ncnc43)c(N3CCC[C@](N)([C@H](O)C(F)F)C3)cn2)cc1F.O=C(O)/C=C/C(=O)O [Form 2, (S)-1-((R)-3-amino-1-(4-((6-amino-9H-purin-9-yl)methyl)-6-(2,5-difluoro-4-methoxyphenyl)pyridin-3-yl)piperidin-3-yl)-2,2-difluoroethan-1-ol Fumaric Acid Salt] |  | 2200 | 1100 | 99.49 | Slight shifting of peaks at higher diffraction angles (2θ); also recorded: Slight Shifting of Certain | 99.51 | 
COc1cc(F)c(-c2cc(Cn3cnc4c(N)ncnc43)c(N3CCC[C@](N)([C@H](O)C(F)F)C3)cn2)cc1F.O=C(O)/C=C/C(=O)O [Form 3, (S)-1-((R)-3-amino-1-(4-((6-amino-9H-purin-9-yl)methyl)-6-(2,5-difluoro-4-methoxyphenyl)pyridin-3-yl)piperidin-3-yl)-2,2-difluoroethan-1-ol Fumaric Acid Salt] | 5.1 | 800 | 700 | 99.56 | Increased crystallinity; also recorded: Higher Crystallinity | 99.58 | approximately 1.8 molar equivalents
